In ChEMBL document CHEMBL1201862, “PubChem BioAssay data set” (2004):
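Following 48 hours of exposure in 96-well plates, responses at five concentrations were used to interpolate endpoints linearly. GI50 = concentration required for 50% inhibition of growth.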 Calls of active or inactive are those of the source. Rule as the data show it: active = GI50 up to about 1.1 µM and inactive = higher.

Legend:
Test in all cases: NCI-60 cell line screen, 48 h
IGROV-1 = tested on: IGROV-1
HL-60 = tested on: HL-60
OVCAR-5 = tested on: OVCAR-5
OVCAR-8 = tested on: OVCAR-8
SK-OV-3 = tested on: SK-OV-3
HCT-15 = tested on: HCT-15
SNB-75 = tested on: SNB-75
A549 = tested on: A549
UACC-257 = tested on: UACC-257
SK-MEL-5 = tested on: SK-MEL-5
K562 = tested on: K562
SR = tested on: SR
HOP-62 = tested on: HOP-62
TK-10 = tested on: TK-10
MDA-MB-435 = tested on: MDA-MB-435
HT-29 = tested on: HT-29
M14 = tested on: M14
SF-539 = tested on: SF-539
CAKI-1 = tested on: CAKI-1

| SMILES | GI50 (IGROV-1) | GI50 (HL-60) | GI50 (OVCAR-5) | GI50 (OVCAR-8) | GI50 (SK-OV-3) | GI50 (HCT-15) [µM] | GI50 (SNB-75) | GI50 (A549) | GI50 (UACC-257) | GI50 (SK-MEL-5) | GI50 (K562) | GI50 (SR) | GI50 (HOP-62) | GI50 (TK-10) | GI50 (MDA-MB-435) | GI50 (HT-29) | GI50 (M14) | GI50 (SF-539) | GI50 (CAKI-1) |
| --- | --- | --- | --- | --- | --- | --- | --- | --- | --- | --- | --- | --- | --- | --- | --- | --- | --- | --- | --- |
| Cc1ccc2nc(N/N=C/c3cccc(C)n3)cc(C)c2c1 | 13.9 µM (inactive) | 2.26 µM (inactive) | 14.3 µM (inactive) | 20.5 µM (inactive) | 15.4 µM (inactive) | 14.2 | 19.7 µM (inactive) | 16 µM (inactive) | 16.9 µM (inactive) | 17.2 µM (inactive) | 45 µM (inactive) | 16.4 µM (inactive) | 16 µM (inactive) | 14.7 µM (inactive) | 15.7 µM (inactive) | 12.3 µM (inactive) | 24.2 µM (inactive) | 17.8 µM (inactive) | 16.8 µM (inactive) |
| Cc1ccc(/C=C2\CCS(=O)(=O)c3ccccc3C2=O)cc1 | 11.4 µM (inactive) | 19.8 µM (inactive) | 26.7 µM (inactive) | 13.9 µM (inactive) | 21.7 µM (inactive) | 11.9 | 16.7 µM (inactive) | 35.6 µM (inactive) | 18.5 µM (inactive) |  | > 100 µM (inactive) | 10.6 µM (inactive) | 26.7 µM (inactive) | 16.6 µM (inactive) | 20.6 µM (inactive) | 17 µM (inactive) | 26.1 µM (inactive) | 12.7 µM (inactive) | 18.3 µM (inactive) |
| CCOC(=O)c1cccc(NC(=O)CI)c1 | 0.338 µM (active) | 0.653 µM (active) | 1.64 µM (inactive) | 0.264 µM (active) | 0.918 µM (active) | 0.336 | 1.42 µM (inactive) | 1.75 µM (inactive) | 1.36 µM (inactive) | 0.507 µM (active) | 0.191 µM (active) | 0.0262 µM (active) | 1.36 µM (inactive) | 0.897 µM (active) | 0.263 µM (active) | 0.313 µM (active) | 0.23 µM (active) | 0.65 µM (active) | 0.55 µM (active) |
| CC(C)=CCC[C@](C)(O[C@@H]1O[C@H](CO)[C@@H](O)[C@H](O)[C@H]1O)[C@H]1CC[C@]2(C)[C@@H]1[C@H](O)C[C@@H]1[C@@]3(C)CC[C@H](O)C(C)(C)[C@@H]3[C@@H](O[C@@H]3O[C@H](CO)[C@@H](O)[C@H](O)[C@H]3O)C[C@]12C [GINSENOSIDE RG1] | > 100 µM (inactive) | > 100 µM (inactive) | > 100 µM (inactive) | > 100 µM (inactive) | > 100 µM (inactive) | > 100 | > 100 µM (inactive) | > 100 µM (inactive) | > 100 µM (inactive) | > 100 µM (inactive) | > 100 µM (inactive) | > 100 µM (inactive) | > 100 µM (inactive) | > 100 µM (inactive) | > 100 µM (inactive) | > 100 µM (inactive) | > 100 µM (inactive) | > 100 µM (inactive) | > 100 µM (inactive) |
| CC1CC(c2ccccc2)Nc2nc3ccccc3n21 (stereo not drawn) | > 100 µM (inactive) | > 100 µM (inactive) | > 100 µM (inactive) | > 100 µM (inactive) | > 100 µM (inactive) | > 100 | > 100 µM (inactive) | > 100 µM (inactive) | > 100 µM (inactive) | > 100 µM (inactive) | > 100 µM (inactive) | > 100 µM (inactive) | > 100 µM (inactive) | > 100 µM (inactive) | > 100 µM (inactive) | 39.1 µM (inactive) | > 100 µM (inactive) | > 100 µM (inactive) | > 100 µM (inactive) |
| COC(C(O)CO)C(O)C(O)C(=O)NNc1ccccc1 (stereo not drawn) | 47.4 µM (inactive) | 6.32 µM (inactive) | > 100 µM (inactive) | > 100 µM (inactive) | > 100 µM (inactive) | > 100 | > 100 µM (inactive) | > 100 µM (inactive) | > 100 µM (inactive) | 37.2 µM (inactive) | 4.05 µM (inactive) | > 100 µM (inactive) | > 100 µM (inactive) | > 100 µM (inactive) | 40.3 µM (inactive) | > 100 µM (inactive) | 57.7 µM (inactive) | 22.4 µM (inactive) | 18.6 µM (inactive) |
| CN(C)c1ccc(/C=C2\C[C@H]3[C@@H]4CC=C5C[C@@H](N6CCCC6)CC[C@]5(C)[C@H]4CC[C@]3(C)[C@H]2O)cc1 | 0.989 µM (active) | 1.15 µM (inactive) | 3.99 µM (inactive) | 0.769 µM (active) | 4.39 µM (inactive) | 1.57 | 0.959 µM (active) | 1.36 µM (inactive) | 0.957 µM (active) | 0.923 µM (active) | 1.21 µM (inactive) | 0.773 µM (active) | 1.71 µM (inactive) | 1.24 µM (inactive) | 1.35 µM (inactive) | 1.1 µM (active) | 0.773 µM (active) | 3.78 µM (inactive) | 1.16 µM (inactive) |
| O=P(Oc1ccccc1)(Oc1ccccc1)Oc1c[nH]c2ccccc12 | 4.07 µM (inactive) | 21.7 µM (inactive) | 0.0449 µM (active) | 13.5 µM (inactive) | 3.44 µM (inactive) | 12.8 | 10.8 µM (inactive) | 11.1 µM (inactive) | 8.55 µM (inactive) | 11.3 µM (inactive) | 10.7 µM (inactive) | 25.4 µM (inactive) | 14.9 µM (inactive) | 12.1 µM (inactive) | 12.2 µM (inactive) | 6.07 µM (inactive) | 11.3 µM (inactive) | 11.4 µM (inactive) | 4.13 µM (inactive) |
| Oc1ccc(-c2cc(-c3c(O)cc(O)cc3O)on2)cc1 | 51.1 µM (inactive) | > 100 µM (inactive) | > 100 µM (inactive) | 55.6 µM (inactive) | 56.5 µM (inactive) | 56.8 | 74.5 µM (inactive) | 54.2 µM (inactive) | 97.5 µM (inactive) | 42.3 µM (inactive) | 40.5 µM (inactive) | 81.3 µM (inactive) | > 100 µM (inactive) | 55.1 µM (inactive) | 56.1 µM (inactive) | 37 µM (inactive) | > 100 µM (inactive) | 31.9 µM (inactive) | 94.6 µM (inactive) |
| COC(=O)/C=C1\C(=O)N(C(C)=O)c2ccc(Br)cc21 | 7.6 µM (inactive) | 2.23 µM (inactive) | 17.3 µM (inactive) | 8.43 µM (inactive) | 15.4 µM (inactive) | 6.75 | 8.59 µM (inactive) | 17.5 µM (inactive) | 10.7 µM (inactive) | 9.68 µM (inactive) | 7.69 µM (inactive) | 2.8 µM (inactive) | 13.2 µM (inactive) | 6.31 µM (inactive) | 9.35 µM (inactive) | 8.87 µM (inactive) | 10.4 µM (inactive) | 4.67 µM (inactive) | 21.3 µM (inactive) |
| O=c1cc(-c2ccccc2)oc2ccc(Oc3nnnn3-c3ccccc3)cc12 | > 75.5 µM (inactive) | > 100 µM (inactive) | > 100 µM (inactive) | 42 µM (inactive) | > 65.3 µM (inactive) | > 100 | 47.3 µM (inactive) | > 90.8 µM (inactive) | > 100 µM (inactive) | > 100 µM (inactive) | 3.58 µM (inactive) | > 33.1 µM (inactive) | 29.4 µM (inactive) | > 100 µM (inactive) | 11.9 µM (inactive) | > 100 µM (inactive) | > 100 µM (inactive) | 27.7 µM (inactive) | > 50.1 µM (inactive) |
| CSCCCNC(=O)c1csc([C@@H](CSC)NC(=O)CCNC(=O)[C@@H](NC(=O)OCC(Br)(Br)Br)C(C)O)n1 (stereo partly drawn) | > 100 µM (inactive) | > 100 µM (inactive) | > 100 µM (inactive) | > 100 µM (inactive) | > 100 µM (inactive) | > 100 | > 100 µM (inactive) | > 100 µM (inactive) | > 100 µM (inactive) | > 100 µM (inactive) | > 100 µM (inactive) | > 100 µM (inactive) | > 100 µM (inactive) | > 100 µM (inactive) | > 100 µM (inactive) | > 100 µM (inactive) | > 100 µM (inactive) | > 100 µM (inactive) | > 100 µM (inactive) |
| O=C(NCCNCCO)N/N=C/c1ccc(Cl)cc1 | > 100 µM (inactive) | > 100 µM (inactive) | > 100 µM (inactive) | > 100 µM (inactive) | > 100 µM (inactive) | > 100 | 36.1 µM (inactive) | > 100 µM (inactive) | > 100 µM (inactive) | > 100 µM (inactive) | > 100 µM (inactive) | > 100 µM (inactive) | > 100 µM (inactive) | > 100 µM (inactive) | > 100 µM (inactive) | > 100 µM (inactive) | > 100 µM (inactive) | > 100 µM (inactive) | > 100 µM (inactive) |
| O=C1C[C@H](COCc2ccccc2)NC(=O)C[C@H](COCc2ccccc2)NC(=O)C[C@H](COCc2ccccc2)N1 | > 100 µM (inactive) | 92.7 µM (inactive) | > 100 µM (inactive) | > 100 µM (inactive) | 19.5 µM (inactive) | > 100 | 2.55 µM (inactive) | > 100 µM (inactive) | > 100 µM (inactive) | > 100 µM (inactive) | 3.52 µM (inactive) | 42.4 µM (inactive) | 17.9 µM (inactive) | 18.1 µM (inactive) | > 100 µM (inactive) | > 100 µM (inactive) | > 100 µM (inactive) | 15.3 µM (inactive) | > 100 µM (inactive) |
| CNC(=S)N/N=C(\C)c1ccc(OC)cc1O | 22.5 µM (inactive) | 0.841 µM (active) | > 100 µM (inactive) | > 100 µM (inactive) | > 100 µM (inactive) | 16 | > 100 µM (inactive) | > 100 µM (inactive) | > 100 µM (inactive) | 7.45 µM (inactive) | 0.7 µM (active) | 29.3 µM (inactive) | > 100 µM (inactive) |  | > 100 µM (inactive) | 0.337 µM (active) | > 100 µM (inactive) | > 100 µM (inactive) | > 100 µM (inactive) |
